The text below walks through data of patent US20230278972A1, “SUBSTITUTED HALOALKYL SULFONANILIDE HERBICIDES” (FMC Corporation, priority 2020, published 2023).

Like-named read-outs stand apart in the source and are kept apart here.

Assay [1] concerns Ryegrass, Italian (Italian ryegrass, Lolium multiflorum). As to the kind of experiment: Test A preemergence, Ryegrass, Italian. The note with it: Lolium multiflorum, pre-emergence, 240 h, Preemergence; for pest or weed control at 125 g/ha: 125 g ai/ha; for pest or weed control at 500 g/ha: 500 g ai/ha. It is filed as in vivo. In a few lines: (§1)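 Preemergence: seeded pots of loam plus sand received a directed soil spray. Postemergence: seedlings at one to two leaves, 2 to 10 cm high, were oversprayed. Each compound was formulated in a non-phytotoxic solvent mix that included a surfactant.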

The subject of a further assay is rice (Oryza sativa). As to the kind of experiment: Test B flooded paddy test, rice. To be noted: 336 h, read-out: Plant response rating, Rice.
Assay [2] deals with blackgrass (Alopecurus myosuroides). Briefly: Test A postemergence, blackgrass. To be noted: Alopecurus myosuroides, post-emergence, 240 h, Postemergence, 0 to 100 scale (0 no effect, 100 complete control); for pest or weed control at 125 g/ha: 125 g ai/ha; for pest or weed control at 500 g/ha: 500 g ai/ha. Format: in vivo. In a few lines: as §1
Assay [3] has as its system galium (catchweed bedstraw, Galium aparine). Briefly: Test A postemergence, galium. It is filed as in vivo. To be noted: Galium, post-emergence, 240 h, Postemergence, 0 to 100 scale (0 no effect, 100 complete control); for pest or weed control at 125 g/ha: 125 g ai/ha; for pest or weed control at 500 g/ha: 500 g ai/ha. In a few lines:
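Barnyardgrass, wheat and galium were treated postemergence at the one- to two-leaf stage (2 to 10 cm) with chemicals formulated in non-phytotoxic solvent plus surfactant, grown in loam soil–sand pots. Pigweed was sown in the same blend and given a preemergence directed soil spray.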

The test system of assay [4] is barnyardgrass (Echinochloa crus-galli). Briefly: Test B flooded paddy test, barnyardgrass. The note with it: 336 h, read-out: Plant response rating, Barnyardgrass.
Where [5] appears, read: visual injury on 0 to 100 scale (0 no effect, 100 complete control), approximately 10 days, read-out: Ryegrass, Italian plant response rating.
Setting [6] is: 0 to 100 scale (0 no effect, 100 complete control), read-out: Plant response rating, Ryegrass, Italian.
Setting [7] is: visual injury approx. 10 days, read-out: Plant response rating, Blackgrass.
[8] abbreviates: visual injury, approx. 10 days, read-out: Plant response rating, Blackgrass.
The mark [9] stands for this setting: visual injury approx. 10 days, read-out: Plant response rating, Galium.
Setting [10] is: visual injury, approx. 10 days, read-out: Plant response rating, Galium.
Setting [11] is: visual injury vs untreated controls after approx. 10 days, read-out: Blackgrass plant response rating.
Setting [12] is: visual injury vs untreated controls after approx. 10 days, read-out: Galium plant response rating.
Setting [13] is: read-out: Plant response rating, Blackgrass.
Where [14] appears, read: read-out: Plant response rating, Galium.
The mark [15] stands for this setting: visual injury, 0 to 100 scale (0 no effect, 100 complete control), approx. 10 days, read-out: Plant response rating, Ryegrass, Italian.

Regarding `Cc1cc(Cl)c(NS(=O)(=O)C(F)(F)F)cc1C(=O)N1CCOCC1` [Compound 16, N-[2-Chloro-4-methyl-5-(4-morpholinylcarbonyl)phenyl]-1,1,1-trifluoromethanesulfonamide], the pest or weed control at 125 g/ha was 90% in assay [1] (setting [5]), 50% in assay [2] (setting [7]) and 80% in assay [3] (setting [9]). In addition, the results for the pest or weed control at 500 g/ha in assay [1] (setting [6]), in assay [2] (setting [8]) and in assay [3] (setting [10]) were 100%, 40% and 90%, respectively. Besides, in the assay with rice (Oryza sativa), the plant injury at 250 g/ha stood at 0%. The pest or weed control at 250 g/ha in assay [4] amounted to 25%.
With `Cc1cc(Cl)c(NS(=O)(=O)C(F)(F)F)cc1C(=O)N1CCCCC1` [Compound 18, N-[2-Chloro-4-methyl-5-(1-piperidinylcarbonyl)phenyl]-1,1,1-trifluoromethanesulfonamide], the pest or weed control at 125 g/ha is 90% in assay [1] (setting [5]), 0% in assay [2] (setting [7]) and 80% in assay [3] (setting [9]). Further, the pest or weed control at 500 g/ha in assay [1] (setting [6]) came to 90%; in assay [2] (setting [8]), 0%; in assay [3] (setting [10]), 80%. Besides, the plant injury at 250 g/ha with rice (Oryza sativa) was found to be 0%. Further, the pest or weed control at 250 g/ha in assay [4] was determined as 0%.
Take `CCc1cc(-c2cc(NS(=O)(=O)C(F)(F)F)c(C)cc2C)c(=O)n(C)n1` [Compound 34, N-[5-(6-Ethyl-2,3-dihydro-2-methyl-3-oxo-4-pyridazinyl)-2,4-dimethylphenyl]-1,1,1-trifluoromethanesulfonamide]: the pest or weed control at 125 g/ha in assay [1] (setting [5]) was found to be 30%; in assay [2] (setting [7]), 0%; in assay [3] (setting [9]), 10%. The pest or weed control at 500 g/ha came to 70% in assay [1] (setting [6]), 0% in assay [2] (setting [8]) and 0% in assay [3] (setting [10]). In the assay on rice (Oryza sativa), the plant injury at 250 g/ha amounted to 0%. In addition, the pest or weed control at 250 g/ha in assay [4] turned out to be 0%.
As to `Cc1cc(C)c(N(COC(=O)C(C)(C)C)S(=O)(=O)C(F)(F)F)cc1C1=NO[C@@H]2CCC[C@H]12` [Compound 100, [[2,4-Dimethyl-5-[(3aR,6aR)-3a,5,6,6a-tetrahydro-4H-cyclopent[d]isoxazol-3-yl]phenyl][(trifluoromethyl)sulfonyl]amino]methyl 2,2-dimethylpropanoate], the pest or weed control at 125 g/ha was 40% in assay [1] (setting [5]), 0% in assay [2] (setting [7]) and 80% in assay [3] (setting [9]). The pest or weed control at 500 g/ha in assay [1] (setting [6]) stood at 70%; in assay [2] (setting [11]), 0%; in assay [3] (setting [12]), 90%. Moreover, the plant injury at 250 g/ha in the assay with rice (Oryza sativa) came out at 20%. In addition, the pest or weed control at 250 g/ha in assay [4] stood at 90%.
Consider `Cc1cc(C)c(C2=NO[C@@H]3CCC[C@H]23)cc1NS(=O)(=O)C(F)(F)F` [Compound 103, N-[2,4-Dimethyl-5-[(3aR,6aR)-3a,5,6,6a-tetrahydro-4H-cyclopent[d]isoxazol-3-yl]phenyl]-1,1,1-trifluoromethanesulfonamide], for which the pest or weed control at 125 g/ha amounted to 90% in assay [1] (setting [5]), 0% in assay [2] (setting [7]) and 90% in assay [3] (setting [9]). For the same compound, the values for the pest or weed control at 500 g/ha in assay [1] (setting [6]), in assay [2] (setting [11]) and in assay [3] (setting [12]) were 90%, 30% and 100%, respectively. The plant injury at 250 g/ha in the assay on rice (Oryza sativa) is 25%. In assay [4], the pest or weed control at 250 g/ha was 85%.
Regarding `Cc1cc(C)c(C2=NOC3CCOCC23)cc1NS(=O)(=O)C(F)(F)F` (centres unmarked) [Compound 120, N-[2,4-Dimethyl-5-(3a,6,7,7a-tetrahydro-4H-pyrano[3,4-d]isoxazol-3-yl)phenyl]-1,1,1-trifluoromethanesulfonamide], the pest or weed control at 125 g/ha in assay [1] (setting [5]) was 100%; in assay [2] (setting [7]), 20%; in assay [3] (setting [9]), 90%. Further, the pest or weed control at 500 g/ha turned out to be 100% in assay [1] (setting [6]), 70% in assay [2] (setting [11]) and 90% in assay [3] (setting [12]). In the assay with rice (Oryza sativa), the plant injury at 250 g/ha is 0%. The pest or weed control at 250 g/ha in assay [4] was 0%.
Turning to `Cc1cc(C)c(C2=NOC3COCCC23)cc1NS(=O)(=O)C(F)(F)F` (centres unmarked) [Compound 121, N-[2,4-Dimethyl-5-(3a,4,7,7a-tetrahydro-5H-pyrano[4,3-d]isoxazol-3-yl)phenyl]-1,1,1-trifluoromethanesulfonamide], the figures for the pest or weed control at 125 g/ha in assay [1] (setting [5]), in assay [2] (setting [7]) and in assay [3] (setting [9]) were 100%, 40% and 90%, respectively. Further, the pest or weed control at 500 g/ha in assay [1] (setting [6]) was determined as 100%; in assay [2] (setting [11]), 80%; in assay [3] (setting [12]), 90%. Also, the plant injury at 250 g/ha in the assay on rice (Oryza sativa) is 20%. For the same compound, in assay [4], the pest or weed control at 250 g/ha came to 40%.
For `Cc1c(NS(=O)(=O)C(F)(F)F)cc(C(=O)N(C)C)c(C)c1F` [Compound 128, 3-Fluoro-N,N,2,4-tetramethyl-5-[[(trifluoromethyl)sulfonyl]amino]benzamide], the pest or weed control at 125 g/ha in assay [1] (setting [5]) was 100%; in assay [2] (setting [7]), 10%; in assay [3] (setting [9]) it was 80%. The results for the pest or weed control at 500 g/ha in assay [1] (setting [6]), in assay [2] (setting [11]) and in assay [3] (setting [12]) were 100%, 30% and 90%, respectively. The plant injury at 250 g/ha in the assay with rice (Oryza sativa) was 0%. Further, the pest or weed control at 250 g/ha in assay [4] was determined as 30%.
As to `Cc1cc(C)c(N(COC(=O)C(C)(C)C)S(=O)(=O)C(F)(F)F)cc1C1=NOC2(CCCC2)C1` [Compound 140, [[2,4-Dimethyl-5-(1-oxa-2-azaspiro[4.4]non-2-en-3-yl)phenyl][(trifluoromethyl)sulfonyl]amino]methyl 2,2-dimethylpropanoate], the pest or weed control at 125 g/ha in assay [1] (setting [5]) was determined as 0%; in assay [2] (setting [7]) it was 30%; in assay [3] (setting [9]), 50%. The pest or weed control at 500 g/ha in assay [1] (setting [6]) was 100%; in assay [2] (setting [11]), 30%; in assay [3] (setting [12]), 70%. For the same compound, in the assay with rice (Oryza sativa), the plant injury at 250 g/ha turned out to be 0%. The pest or weed control at 250 g/ha in assay [4] is 95%.
Take `Cc1cc(C)c(N(COC(=O)C(C)(C)C)S(=O)(=O)C(F)(F)F)cc1C1=NOC2(CCCCC2)C1` [Compound 159, [[2,4-Dimethyl-5-(1-oxa-2-azaspiro[4.5]dec-2-en-3-yl)phenyl][(trifluoromethyl)sulfonyl]amino]methyl 2,2-dimethylpropanoate]: the pest or weed control at 125 g/ha in assay [1] (setting [5]) was 0%; in assay [2] (setting [13]), 0%; in assay [3] (setting [14]) it was 80%. Further, the pest or weed control at 500 g/ha was found to be 30% in assay [1] (setting [6]), 20% in assay [2] (setting [11]) and 90% in assay [3] (setting [12]). Further, in the assay with rice (Oryza sativa), the plant injury at 250 g/ha was determined as 0%. In addition, the pest or weed control at 250 g/ha in assay [4] came to 65%.
`Cc1c(NS(=O)(=O)C(F)(F)F)cc(C(=O)N2CCOCC2)c(C)c1F` [Compound 190, 1,1,1-Trifluoro-N-[3-fluoro-2,4-dimethyl-5-(4-morpholinylcarbonyl)phenyl]methanesulfonamide]: the values for the pest or weed control at 125 g/ha in assay [1] (setting [15]), in assay [2] (setting [13]) and in assay [3] (setting [14]) were 70%, 10% and 70%, respectively. Further, the pest or weed control at 500 g/ha in assay [1] (setting [6]) amounted to 100%; in assay [2] (setting [11]), 40%; in assay [3] (setting [12]) it was 90%. Besides, the plant injury at 250 g/ha in the assay on rice (Oryza sativa) turned out to be 0%. Moreover, in assay [4], the pest or weed control at 250 g/ha was found to be 0%.
For `Cc1cc(C)c(C2=NOC3(CCCCC3)C2)cc1NS(=O)(=O)C(F)(F)F` [Compound 197, N-[2,4-Dimethyl-5-(1-oxa-2-azaspiro[4.5]dec-2-en-3-yl)phenyl]-1,1,1-trifluoromethanesulfonamide], the figures for the pest or weed control at 125 g/ha in assay [1] (setting [15]), in assay [2] (setting [13]) and in assay [3] (setting [14]) were 100%, 40% and 90%, respectively. In addition, the pest or weed control at 500 g/ha in assay [1] (setting [6]) worked out at 100%; in assay [2] (setting [11]) it was 60%; in assay [3] (setting [12]), 90%. For the same compound, the plant injury at 250 g/ha in the assay on rice (Oryza sativa) worked out at 0%. For the same compound, the pest or weed control at 250 g/ha in assay [4] turned out to be 95%.
For the compound `Cc1cc(C)c(C2=NOC3(CCCC3)C2)cc1NS(=O)(=O)C(F)(F)F` [Compound 207, N-[2,4-Dimethyl-5-(1-oxa-2-azaspiro[4.4]non-2-en-3-yl)phenyl]-1,1,1-trifluoromethanesulfonamide], the pest or weed control at 125 g/ha in assay [1] (setting [15]) turned out to be 90%; in assay [2] (setting [13]) it was 20%; in assay [3] (setting [14]), 50%. The pest or weed control at 500 g/ha in assay [1] (setting [6]) came to 100%; in assay [2] (setting [11]), 60%; in assay [3] (setting [12]) it was 70%. Besides, the plant injury at 250 g/ha in the assay with rice (Oryza sativa) was determined as 0%. Besides, the pest or weed control at 250 g/ha in assay [4] came out at 75%.
